The values below come from US8586747B2, “3,3-dimethyl tetrahydroquinoline derivatives” (Hoffmann-La Roche Inc., priority 2010, dated 2013).

In the assay the test system is AMP-activated protein kinase (AMPK). In words: ADP Quest assay for AMPK activators. The format is biochemical. More on the design: key: fold AMPK activation with vs without activator at 30 µM. As to conditions: fold of AMPK activation to phosphorylate SAMS peptide without and with an activator at the concentration of 30 µM. The method, boiled down: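 E30, the fold increase in SAMS peptide phosphorylation at 30 µM compound relative to no activator, is derived from kinetic fluorescent detection of ADP (ex 530, em 590 nm). AMPK starts the ATP-containing reaction at room temperature; compounds span […] by 2-fold steps, AMP serves as reference.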
`CC1(C)Cc2cc(C(=O)NS(=O)(=O)C3CC3)ccc2NC1c1cc(F)cc(N2CCCC2)c1` (stereo not shown) [Example 62, Cyclopropanesulfonic acid [2-(3-fluoro-5-pyrrolidin-1-yl-phenyl)-3,3-dimethyl-1,2,3,4-tetrahydro-quinoline-6-carbonyl]-amide] gave an E30 of 1.61. The figure for `CC1(C)Cc2cc(C(=O)O)ccc2NC1c1ccc(NS(=O)(=O)c2ccccc2F)cc1` (stereo not shown) [Example 213, 2-(4-(2-Fluorophenylsulfonamido)phenyl)-3,3-dimethyl-1,2,3,4-tetrahydroquinoline-6-carboxylic acid] is 1.27; for `CC1(C)Cc2cc(C(=O)NS(=O)(=O)C3CC3)ccc2NC1c1cccc(N2C(=O)OC[C@H]2Cc2ccccc2)c1` (stereo partly drawn) [Example 130, Cyclopropanesulfonic acid {2-[3-((R)4-benzyl-2-oxo-oxazolidin-3-yl)-phenyl]-3,3-dimethyl-1,2,3,4-tetrahydro-quinoline-6-carbonyl}-amide] it is 1.25; for `Cc1cc(C2Nc3ccc(C(=O)NS(=O)(=O)C4CC4)cc3CC2(C)C)cc(N2CCOCC2)c1` (stereo not shown) [Example 64, Cyclopropanesulfonic acid [3,3-dimethyl-2-(3-methyl-5-morpholin-4-yl-phenyl)-1,2,3,4-tetrahydro-quinoline-6-carbonyl]-amide] it is 1.48. Turning to `Cc1cc(C2Nc3ccc(C(=O)O)cc3CC2(C)C)cc(N2CCOCC2)c1` (stereo not shown) [Example 63, 3,3-Dimethyl-2-(3-methyl-5-morpholin-4-yl-phenyl)-1,2,3,4-tetrahydro-quinoline-6-carboxylic acid], the E30 was found to be 1.56. In the case of `CC1(C)Cc2cc(C(=O)O)ccc2NC1c1cccc(C(=O)O)c1` (stereo not shown) [Example 7, 2-(3-Carbonyl-phenyl)-3,3-dimethyl-1,2,3,4-tetrahydro-quinoline-6-carboxylic acid], the E30 was found to be 1.31.

`CC1(C)Cc2ccc(C(=O)O)c(F)c2NC1c1cccc(N2CCOCC2)c1` (stereo not shown) [Example 137, 8-Fluoro-3,3-dimethyl-2-(3-morpholin-4-yl-phenyl)-1,2,3,4-tetrahydro-quinoline-7-carboxylic acid] showed an E30 of 1.26. `CC1(C)Cc2cc(C(=O)O)ccc2NC1c1cccc(NC(=O)NCc2ccccc2)c1` (stereo not shown) [Example 1, 2-[3-(3-Benzyl-ureido)-phenyl]-3,3-dimethyl-1,2,3,4-tetrahydro-quinoline-6-carboxylic acid] returned an E30 of 1.43. The compound `CC1(C)Cc2cc(C(=O)NS(=O)(=O)C3CC3)ccc2NC1c1cncc(N2CCOCC2)c1` (stereo not shown) [Example 114, Cyclopropanesulfonic acid [3,3-dimethyl-2-(5-morpholin-4-yl-pyridin-3-yl)-1,2,3,4-tetrahydro-quinoline-6-carbonyl]-amide] showed an E30 of 1.21.

Compound `CC1(C)Cc2cc(C(=O)NS(C)(=O)=O)ccc2NC1c1cccc(N2CCN(c3ccc(Cl)cc3)CC2)c1` (stereo not shown) [Example 88, N-(2-{3-[4-(4-Chloro-phenyl)-piperazin-1-yl]-phenyl}-3,3-dimethyl-1,2,3,4-tetrahydro-quinoline-6-carbonyl)-methanesulfonamide] registered an E30 of 1.35.

As to `CC1(C)Cc2cc(C(=O)NS(=O)(=O)C3CC3)ccc2NC1c1cccc(-c2ccc(S(C)(=O)=O)cc2)c1` (stereo not shown) [Example 161, Cyclopropanesulfonic acid [2-(4′-methanesulfonyl-biphenyl-3-yl)-3,3-dimethyl-1,2,3,4-tetrahydro-quinoline-6-carbonyl]-amide], the E30 turned out to be 1.21. With `CC1(C)Cc2cc(C(=O)O)ccc2NC1c1cccc(NC(=O)c2ccc(F)cc2)c1` (stereo not shown) [Example 20, 2-[3-(4-Fluoro-benzoylamino)-phenyl]-3,3-dimethyl-1,2,3,4-tetrahydro-quinoline-6-carboxylic acid] the figure was 1.25; with `CC1(C)Cc2cc(C(=O)O)ccc2NC1c1cccnc1` (stereo not shown) [Example 108, 3,3-Dimethyl-2-pyridin-3-yl-1,2,3,4-tetrahydro-quinoline-6-carboxylic Acid], 1.29. Compound `CC1(C)Cc2cc(C(=O)O)ccc2NC1c1ccccc1NS(C)(=O)=O` (stereo not shown) [Example 223, 3,3-Dimethyl-2-(2-(methylsulfonamido)phenyl)-1,2,3,4-tetrahydroquinoline-6-carboxylic acid] registered an E30 of 1.94. For `COc1cccc(C2Nc3ccc(C(=O)N4CCC(C)(O)C4)cc3CC2(C)C)c1` (stereo not shown) [Example 107, (3-Hydroxy-3-methyl-pyrrolidin-1-yl)-[2-(3-methoxy-phenyl)-3,3-dimethyl-1,2,3,4-tetrahydro-quinolin-6-yl]-methanone], the E30 turned out to be 1.29. The figure for `CC1(C)Cc2cc(C(=O)O)ccc2NC1c1ccc(NS(=O)(=O)c2cccc(F)c2)cc1` (stereo not shown) [Example 212, 2-(4-(3-Fluorophenylsulfonamido)phenyl)-3,3-dimethyl-1,2,3,4-tetrahydroquinoline-6-carboxylic acid] is 1.28. The figure for `CCc1nnnn1-c1cccc(C2Nc3ccc(C(=O)NS(C)(=O)=O)cc3CC2(C)C)c1` (stereo not shown) [Example 146, N-{2-[3-(5-Ethyl-tetrazol-1-yl)-phenyl]-3,3-dimethyl-1,2,3,4-tetrahydro-quinoline-6-carbonyl}-methanesulfonamide] is 1.21. With `CN1CCN(c2cccc(C3Nc4ccc(C(=O)NS(C)(=O)=O)cc4CC3(C)C)c2)CC1` (stereo not shown) [Example 96, N-{3,3-Dimethyl-2-[3-(4-methyl-piperazin-1-yl)-phenyl]-1,2,3,4-tetrahydro-quinoline-6-carbonyl}-methanesulfonamide], the E30 is recorded as 1.5. The figure for `CC1(C)Cc2cc(C(=O)NS(=O)(=O)C3CC3)ccc2NC1c1cccc(N2CC(F)C2)c1` (stereo not shown) [Example 153, Cyclopropanesulfonic acid {2-[3-(3-fluoro-azetidin-1-yl)-phenyl]-3,3-dimethyl-1,2,3,4-tetrahydro-quinoline-6-carbonyl}-amide] is 1.27; for `CC1(C)Cc2cc(C(=O)O)ccc2NC1c1cccc(NC(=O)N2CCOCC2)c1` (stereo not shown) [Example 21, 3,3-Dimethyl-2-{3-[(morpholine-4-carbonyl)-amino]-phenyl}-1,2,3,4-tetrahydro-quinoline-6-carboxylic acid] it is 1.42; for `CC1(C)Cc2cc(C(=O)O)ccc2NC1c1cccc(S(=O)(=O)Nc2ccccc2)c1` (stereo not shown) [Example 230, 3,3-Dimethyl-2-(3-(N-phenylsulfamoyl)phenyl)-1,2,3,4-tetrahydroquinoline-6-carboxylic acid] it is 1.27. For the compound `CC1(C)Cc2cc(C(=O)O)ccc2NC1c1cc(F)cc(-c2ccc(C#N)cc2)c1` (stereo not shown) [Example 51, 2-(4′-Cyano-5-fluoro-biphenyl-3-yl)-3,3-dimethyl-1,2,3,4-tetrahydro-quinoline-6-carboxylic acid], the E30 is on record as 1.42. Compound `CN(CC(=O)O)C(=O)c1ccc2c(c1)CC(C)(C)C(c1cccc(N3CCOCC3)c1)N2` (stereo not shown) [Example 23, {[3,3-Dimethyl-2-(3-morpholin-4-yl-phenyl)-1,2,3,4-tetrahydro-quinoline-6-carboxyl]-methyl-amino}-acetic acid] came in with an E30 of 1.32.

In turn, `CC1(C)Cc2cc(C(=O)O)ccc2NC1c1cccc(C(=O)NC2CCC2)c1` (stereo not shown) [Example 172, 2-(3-(Cyclobutylcarbamoyl)phenyl)-3,3-dimethyl-1,2,3,4-tetrahydroquinoline-6-carboxylic acid] gave an E30 of 1.34.

`CC1(C)Cc2cc(C(=O)O)ccc2NC1c1cccc(NC(=O)N2CCCCC2)c1` (stereo not shown) [Example 22, 3,3-Dimethyl-2-{3-[(piperidine-1-carbonyl)-amino]-phenyl}-1,2,3,4-tetrahydro-quinoline-6-carboxylic acid]: the E30 amounted to 1.39. With `CC(C)(Nc1cccc(C2Nc3ccc(C(=O)NS(C)(=O)=O)cc3CC2(C)C)c1)C(=O)O` (stereo not shown) [Example 28, 2-[3-(6-Methanesulfonylaminocarbonyl-3,3-dimethyl-1,2,3,4-tetrahydro-quinolin-2-yl)-phenylamino]-2-methyl-propionic acid] the figure was 2.5; with `CC1(C)Cc2cc(C(=O)O)ccc2NC1c1ccc(NC(=O)c2ccccn2)cc1` (stereo not shown) [Example 186, 3,3-Dimethyl-2-(4-(picolinamido)phenyl)-1,2,3,4-tetrahydroquinoline-6-carboxylic acid], 1.21. The compound `CC1(C)Cc2cc(C(=O)O)ccc2NC1c1cccc(-n2nnnc2Cc2ccccc2)c1` (stereo not shown) [Example 147, 2-[3-(5-Benzyl-tetrazol-1-yl)-phenyl]-3,3-dimethyl-1,2,3,4-tetrahydro-quinoline-6-carboxylic acid] yielded an E30 of 1.35.
